Structures can show the parent of a compound that is named as a salt. Where two headings read alike, the source gives them in different places.
How the values were obtained:
[1] = tested on: coronary occlusion in the rat; experiment: Anti-ischemic and anti-hypertensive activity: coronary occlusion in the anesthetized rat (elevation of the T wave of the electrocardiogram, arterial pressure); assay type: in vivo, male albino rat of the Sprague-Dawley strain; settings: for change in vivo at 1 µmol/kg / change in vivo at 3 µmol/kg: Rattus norvegicus, iv
Excerpt: The cardiac anti-ischemic activity of compounds manifests itself by their capacity to oppose the elevation of the T wave of the electrocardiogram, induced by a coronary occlusion in the rat. Continuous monitoring of the arterial pressure also enables to reveal the anti-hypertensive effects. The animal used for the test is a male albino rat of the Sprague-Dawley strain, weighing 220 to 280 g. On the day of the experiment, the animal is anesthetized by intraperitoneal administration of pentobarbital (60 mg/kg), then placed under endotracheal intubation. A ligature system is fitted around the descending left anterior coronary artery according to the procedure of Johnston et el. (Can. J. Physiol. Pharmacol., 61 (1983), 1340-1353). After closing the thorax, three electrodes are arranged on the body of the animal ("V4" thoracic derivation), in order to continuously record the shape of the electrocardiogram signal (in particular the T wave). Catheters are introduced into the right carotid artery and the right jugular vein to measure the arterial pressure and to administer intravenously the compound tested or the vehicle solution. Four 45 second coronary occlusions are performed, separated by episodes of reperfusion of 30, 35 and 30 minutes respectively. The compound to be studied or the vehicle are administered intravenously in bolus, 30 minutes before occlusion 3. The T electrocardiographic signal and the arterial pressure are continuously measured during the entire experiment.
The effects of the compounds according to the invention are quantified by comparing the amplitude of the elevation of the T wave at occlusions 3 and 4 (that is 30 minutes and 60 minutes after administration) with its value at occlusion 2 (that is before administration).
the second column indicates the dose of compound administered, expressed in mole/kg;
the third and the fourth columns indicate the anti-ischemic effect caused by administering the compound tested. The anti-ischemic effect represents the reduction in the elevation of the T wave caused by coronary occlusions 3 and 4, expressed in % with respect to occlusion 2, before administration of the compound (ΔT3 and ΔT4 respectively);
the fifth and sixth columns indicate the anti-hypertensive effect caused by administration of the compound tested. The anti-hypertensive effect is expressed as the maximum lowering of arterial pressure, measured a) between 5 and 30 minutes, and b) between 30 and 60 minutes after intravenous injection of the compound tested (ΔPa and ΔPb respectively). This lowering is expressed in % with respect to the value measured before injection.

[2] = tested on: presynaptic α2 -adrenergic receptors; experiment: Inhibition of the contraction of the electrically stimulated guinea pig ileum (presynaptic α2-agonist activity); settings: guinea pig ileum longitudinal muscle strips, electrical stimulation
Excerpt: Longitudinal muscle strips attached to an isometric strain gauge are suspended in Tyrode's solution and are stretched under a tension of 1 g (G. M. Drew, Brit. J. Pharmacol. 64, (1978), 293-300; M. Andrejak et al., Naunyn-Schmiedeberg's Arch. Pharmacol. 314, (1980), 83-87).
Electrical stimulation of the parasympathetic nerves associated with the ileum fragments causes a contraction of the muscle. This contraction is reduced in the presence of a presynaptic α2 -agonist and the magnitude by which the contraction is reduced depends on the concentration of the agonist used. This effect is antagonised by the simultaneous presence of an α2 -antagonist such as alpha-yohimbine.
The IC30 concentration (in mole/l) that reduces by 30% the intensity of the contraction of the muscle is determined.

[3] = molecular target: T1, postsynaptic α1 -adrenergic receptor (Rattus norvegicus, UniProt P23944); experiment: Postsynaptic α1-antagonist activity: inhibition of norepinephrine-induced contraction of the isolated aorta of the rat; settings: read-out: ED30 (concentration which causes 30% inhibition of the contraction induced by norepinephrine)
T1 construct: isolated aorta of the rat; from tissue; host or cells: rat isolated aorta
T1 sequence (P23944 1-561): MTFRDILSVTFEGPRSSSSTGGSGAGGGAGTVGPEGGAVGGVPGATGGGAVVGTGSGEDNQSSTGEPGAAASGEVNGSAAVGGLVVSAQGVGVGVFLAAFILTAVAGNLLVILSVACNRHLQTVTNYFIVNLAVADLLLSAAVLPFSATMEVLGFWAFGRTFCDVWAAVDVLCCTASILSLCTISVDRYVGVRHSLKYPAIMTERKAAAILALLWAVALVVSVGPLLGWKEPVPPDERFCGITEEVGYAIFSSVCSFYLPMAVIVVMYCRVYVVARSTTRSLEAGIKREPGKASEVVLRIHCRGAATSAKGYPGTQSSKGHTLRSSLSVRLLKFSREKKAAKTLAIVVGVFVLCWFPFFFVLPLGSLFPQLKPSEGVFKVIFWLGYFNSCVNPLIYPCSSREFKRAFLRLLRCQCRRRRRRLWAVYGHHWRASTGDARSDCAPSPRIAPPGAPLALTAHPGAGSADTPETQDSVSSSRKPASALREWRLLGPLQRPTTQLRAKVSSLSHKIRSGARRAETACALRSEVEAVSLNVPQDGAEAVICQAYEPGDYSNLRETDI
Protocol: A non selective α-agonist substance such as norepinephrine induces a sustained contraction of the isolated aorta of the rat (J. M. Van Rossum Arch. Int. Pharmacodyn. 143, (1963), 299-330). This contraction can be inhibited by α1 -adrenergic blocking substances such as prazosin. In this test, a control contraction is carried out with norepinephrine at 3.2×10^-8 mole/l. After washing and stabilizing the preparation, the compound to be tested is added to the bath. Norepinephrine is added 5 minutes after the compound tested, and inhibition of the contraction induced by norepinephrine is measured. Next, inhibition of the contraction induced by norepinephrine is evaluated a second and third time in the presence of increasing concentrations of the compound tested.

male NMRI mice = experiment: Toxicity, Irwin's test; assay type: in vivo; settings: intraperitoneal
Protocol: The toxicity of the compounds of the invention has been determined in male NMRI mice by means of Irwin's test (S. Irwin, Psychopharmacologia (Berl.), 13, (1968), 222-257).
Progressive doses of the product studied are administered intraperitoneally to groups of three mice until a lethal dose is reached (dose causing the death of two out of three animals in 48 hours). It follows from this Table that the compounds of the invention are not very toxic.

[4] = 0.5 h, read-out: ΔPa (maximum lowering of arterial pressure)
[5] = 0.5 h, read-out: ΔT3 (anti-ischemic effect: change in elevation of the T wave, occlusion 3 vs occlusion 2)
[6] = 1 h, read-out: ΔPb (maximum lowering of arterial pressure)
[7] = 1 h, read-out: ΔT4 (anti-ischemic effect: change in elevation of the T wave, occlusion 4 vs occlusion 2)

In the case of `COc1cccc2c1C(c1c[nH]cn1)CCC2` (stereo not drawn) [Compound I, 4-(1,2,3,4-tetrahydro-8-methoxy-1-naphthalenyl)-1H-imidazole], the change in vivo at 1 µmol/kg [1, 4] is reported as -26%, the change in vivo at 1 µmol/kg [1, 5] is reported as -37% and the change in vivo at 1 µmol/kg [1, 6] is reported as -16%. The change in vivo at 1 µmol/kg [1, 7] was -57%, the “IC30 (concentration that reduces by 30% the intensity of the contraction of the muscle)” value [2] was 8 µM and the IC30 [3] was 1.8 µM. The “Lethal dose (dose causing the death of two out of three animals in 48 hours)” value (“Lethal dose” below) (male NMRI mice) was 228.3 mg/kg.

`COc1ccc2c(c1)CCC2c1c[nH]cn1` (stereo not drawn) [Compound C, 4-(2,3-dihydro-5-methoxy-1H-inden-1-yl)-1H-imidazole] gave a change in vivo at 3 µmol/kg [1, 4] of -44%, a change in vivo at 3 µmol/kg [1, 5] of -52% and a change in vivo at 3 µmol/kg [1, 6] of -43%. The change in vivo at 3 µmol/kg [1, 7] was -66%, the “IC30 (concentration that reduces by 30% the intensity of the contraction of the muscle)” value [2] was 0.032 µM and the IC30 [3] was 0.1 µM. The “Lethal dose” value (male NMRI mice) was 214.3 mg/kg.

For `Oc1ccc2c(c1)CCCC2c1c[nH]cn1` (single isomer, unassigned; (+)) [Compound D, (+)-5,6,7,8-tetrahydro-5-(1H-imidazol-4-yl)-2-naphthalenol], the change in vivo at 1 µmol/kg [1, 4] was -30%, the change in vivo at 1 µmol/kg [1, 5] was -50% and the change in vivo at 1 µmol/kg [1, 6] was -17%. The change in vivo at 1 µmol/kg [1, 7] was -31%, the “IC30 (concentration that reduces by 30% the intensity of the contraction of the muscle)” value [2] was 0.0018 µM and the IC30 [3] was 0.42 µM. The “Lethal dose” value (male NMRI mice) was greater than 68.6 mg/kg.

Work on `NC(=O)c1cccc(Cc2c[nH]cn2)c1O` [Mivazerol, 2-hydroxy-3-[(1H-imidazol-4-yl)methyl]benzamide hydrochloride, reference compound] yielded a change in vivo at 3 µmol/kg [1, 4] of -1%, a change in vivo at 3 µmol/kg [1, 5] of -34% and a change in vivo at 3 µmol/kg [1, 6] of -6%. For the same molecule, the change in vivo at 3 µmol/kg [1, 7] was -22%.

`COc1cccc2c1CCCC2c1c[nH]cn1` (stereo not drawn) [Compound E, 4-(1,2,3,4-tetrahydro-5-methoxy-1-naphthalenyl)-1H-imidazole] was tested, and the change in vivo at 1 µmol/kg [1, 4] was -45%, the change in vivo at 1 µmol/kg [1, 5] was -31% and the change in vivo at 1 µmol/kg [1, 6] was -20%. The change in vivo at 1 µmol/kg [1, 7] was -13%, the “IC30 (concentration that reduces by 30% the intensity of the contraction of the muscle)” value [2] was 0.0017 µM and the IC30 [3] was 0.46 µM. For the same molecule, the “Lethal dose” value (male NMRI mice) was 127.8 mg/kg.

With `COc1cc2nc(N3CCN(C(=O)c4ccco4)CC3)nc(N)c2cc1OC` [Prazosin, 1-(4-amino-6,7-dimethoxy-2-quinazolinyl)-4-(2-furanylcarbonyl)piperazine, reference compound] the “anti-ischemic effect, in words” value ([1]; i.v., Table I) was “absence of a significant anti-ischemic effect” and the IC30 [3] was 0.00023 µM.

With `Cl.Oc1cc2c(cc1O)C(c1c[nH]cn1)CCC2` (stereo not drawn) [Compound K, 5,6,7,8-tetrahydro-5-(1H-imidazol-4-yl)-2,3-naphthalenediol hydrochloride] the change in vivo at 3 µmol/kg [1, 4] was -29%, the change in vivo at 3 µmol/kg [1, 5] was -49% and the change in vivo at 3 µmol/kg [1, 6] was -41%. For the same molecule, the change in vivo at 3 µmol/kg [1, 7] was -47%, the “IC30 (concentration that reduces by 30% the intensity of the contraction of the muscle)” value [2] was 0.016 µM and the “Lethal dose” value (male NMRI mice) was greater than 85.4 mg/kg.

Molecule `Cl.Oc1cccc2c1CCCC2c1c[nH]cn1` (stereo not drawn) [Compound F, 5,6,7,8-tetrahydro-5-(1H-imidazol-4-yl)-1-naphthalenol hydrochloride] has a change in vivo at 3 µmol/kg [1, 4] of -32%, a change in vivo at 3 µmol/kg [1, 5] of -64% and a change in vivo at 3 µmol/kg [1, 6] of -36%. For the same molecule, the change in vivo at 3 µmol/kg [1, 7] was -59%, the “IC30 (concentration that reduces by 30% the intensity of the contraction of the muscle)” value [2] was 0.0037 µM and the IC30 [3] was 0.23 µM. The “Lethal dose” value (male NMRI mice) was 214.3 mg/kg.

`Cc1ccc2c(c1)CCCC2c1c[nH]cn1` (stereo not drawn) [Compound G, 4-(1,2,3,4-tetrahydro-6-methyl-1-naphthalenyl)-1H-imidazole] gave a change in vivo at 3 µmol/kg [1, 4] of -22%, a change in vivo at 3 µmol/kg [1, 5] of -24% and a change in vivo at 3 µmol/kg [1, 6] of -14%. The change in vivo at 3 µmol/kg [1, 7] was -16%, the “IC30 (concentration that reduces by 30% the intensity of the contraction of the muscle)” value [2] was 0.03 µM and the IC30 [3] was 0.072 µM. The “Lethal dose” value (male NMRI mice) was 118.9 mg/kg.

With `Cl.Oc1ccc2c(c1)CCC2c1c[nH]cn1` (stereo not drawn) [Compound H, 2,3-dihydro-1-(1H-imidazol-4-yl)-1H-indene-5-ol hydrochloride] the change in vivo at 3 µmol/kg [1, 4] was -23%, the change in vivo at 3 µmol/kg [1, 5] was -48% and the change in vivo at 3 µmol/kg [1, 6] was -19%. The change in vivo at 3 µmol/kg [1, 7] was -55%, the “IC30 (concentration that reduces by 30% the intensity of the contraction of the muscle)” value [2] was 0.036 µM and the IC30 [3] was 0.21 µM. For the same molecule, the “Lethal dose” value (male NMRI mice) was 236.7 mg/kg.

For `CC(C)NCC(O)COc1cccc2ccccc12` (stereo not drawn) [Propranolol, 1-[(1-methylethyl)amino]-3-(1-naphthalenyloxy)-2-propanol, reference compound], the change in vivo at 3 µmol/kg ([1]; 0.5 h, i.v. bolus, 3.2 × 10^-6 mole/kg, 30 minutes after administration, read-out: ΔT3 (anti-ischemic effect: change in elevation of the T wave, occlusion 3 vs occlusion 2)) was -21%, the change in vivo at 3 µmol/kg ([1]; 0.5 h, i.v. bolus, 3.2 × 10^-6 mole/kg, between 5 and 30 minutes after injection, read-out: ΔPa (maximum lowering of arterial pressure)) was 7% and the change in vivo at 3 µmol/kg ([1]; 1 h, i.v. bolus, 3.2 × 10^-6 mole/kg, 60 minutes after administration, read-out: ΔT4 (anti-ischemic effect: change in elevation of the T wave, occlusion 4 vs occlusion 2)) was -30%. It also gave a change in vivo at 3 µmol/kg ([1]; 1 h, i.v. bolus, 3.2 × 10^-6 mole/kg, between 30 and 60 minutes after injection, read-out: ΔPb (maximum lowering of arterial pressure)) of 5%.

For `Cc1cc(C(C)(C)C)c(O)c(C)c1CC1=NCCN1` [Oxymetazoline, 3-[(4,5-dihydro-1H-imidazol-2-yl)methyl]-6-(1,1-dimethylethyl)-2,4-dimethylphenol, reference compound], the change in vivo at 3 µmol/kg ([1]; 0.5 h, i.v. bolus, 3.2 × 10^-8 mole/kg, 30 minutes after administration, read-out: ΔT3 (anti-ischemic effect: change in elevation of the T wave, occlusion 3 vs occlusion 2)) was -45%, the change in vivo at 3 µmol/kg ([1]; 1 h, i.v. bolus, 3.2 × 10^-8 mole/kg, 60 minutes after administration, read-out: ΔT4 (anti-ischemic effect: change in elevation of the T wave, occlusion 4 vs occlusion 2)) was -38% and the change in vivo at 3 µmol/kg ([1]; 1 h, i.v. bolus, 3.2 × 10^-8 mole/kg, between 30 and 60 minutes after injection, read-out: ΔPb (maximum lowering of arterial pressure)) was 0%. For the same molecule, the “IC30 (concentration that reduces by 30% the intensity of the contraction of the muscle)” value [2] was 0.012 µM.

— US5658938A, “Substituted 1H-imidazoles” (U C B S.A., priority 1994, dated 1997)
